Each block holds one compound with its values, some of them ahead of it.
Biological target: human GluN1/GluN2B NMDA receptors (Homo sapiens, UniProt Q05586+Q13224)
Test: Cell-based calcium flux (FLIPR) assay on cloned human NR1/NR2B ion channels expressed in mammalian cells
Conditions: standard assay
Summary of the method: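 Calcium influx followed by FLIPR fluorescence after 5 min compound exposure and a further 5 min co-agonist challenge: 10 μM glycine with glutamate at ~EC80 (standard) or EC40 (HTS).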

[1] = glutamate at ~EC80, FLIPR calcium flux
[2] = human GluN1/GluN2B, calcium flux (FLIPR), glutamate ~EC80

human GluN1/GluN2B NMDA receptors, sequence (Q13224 27-1484, other chains not shown): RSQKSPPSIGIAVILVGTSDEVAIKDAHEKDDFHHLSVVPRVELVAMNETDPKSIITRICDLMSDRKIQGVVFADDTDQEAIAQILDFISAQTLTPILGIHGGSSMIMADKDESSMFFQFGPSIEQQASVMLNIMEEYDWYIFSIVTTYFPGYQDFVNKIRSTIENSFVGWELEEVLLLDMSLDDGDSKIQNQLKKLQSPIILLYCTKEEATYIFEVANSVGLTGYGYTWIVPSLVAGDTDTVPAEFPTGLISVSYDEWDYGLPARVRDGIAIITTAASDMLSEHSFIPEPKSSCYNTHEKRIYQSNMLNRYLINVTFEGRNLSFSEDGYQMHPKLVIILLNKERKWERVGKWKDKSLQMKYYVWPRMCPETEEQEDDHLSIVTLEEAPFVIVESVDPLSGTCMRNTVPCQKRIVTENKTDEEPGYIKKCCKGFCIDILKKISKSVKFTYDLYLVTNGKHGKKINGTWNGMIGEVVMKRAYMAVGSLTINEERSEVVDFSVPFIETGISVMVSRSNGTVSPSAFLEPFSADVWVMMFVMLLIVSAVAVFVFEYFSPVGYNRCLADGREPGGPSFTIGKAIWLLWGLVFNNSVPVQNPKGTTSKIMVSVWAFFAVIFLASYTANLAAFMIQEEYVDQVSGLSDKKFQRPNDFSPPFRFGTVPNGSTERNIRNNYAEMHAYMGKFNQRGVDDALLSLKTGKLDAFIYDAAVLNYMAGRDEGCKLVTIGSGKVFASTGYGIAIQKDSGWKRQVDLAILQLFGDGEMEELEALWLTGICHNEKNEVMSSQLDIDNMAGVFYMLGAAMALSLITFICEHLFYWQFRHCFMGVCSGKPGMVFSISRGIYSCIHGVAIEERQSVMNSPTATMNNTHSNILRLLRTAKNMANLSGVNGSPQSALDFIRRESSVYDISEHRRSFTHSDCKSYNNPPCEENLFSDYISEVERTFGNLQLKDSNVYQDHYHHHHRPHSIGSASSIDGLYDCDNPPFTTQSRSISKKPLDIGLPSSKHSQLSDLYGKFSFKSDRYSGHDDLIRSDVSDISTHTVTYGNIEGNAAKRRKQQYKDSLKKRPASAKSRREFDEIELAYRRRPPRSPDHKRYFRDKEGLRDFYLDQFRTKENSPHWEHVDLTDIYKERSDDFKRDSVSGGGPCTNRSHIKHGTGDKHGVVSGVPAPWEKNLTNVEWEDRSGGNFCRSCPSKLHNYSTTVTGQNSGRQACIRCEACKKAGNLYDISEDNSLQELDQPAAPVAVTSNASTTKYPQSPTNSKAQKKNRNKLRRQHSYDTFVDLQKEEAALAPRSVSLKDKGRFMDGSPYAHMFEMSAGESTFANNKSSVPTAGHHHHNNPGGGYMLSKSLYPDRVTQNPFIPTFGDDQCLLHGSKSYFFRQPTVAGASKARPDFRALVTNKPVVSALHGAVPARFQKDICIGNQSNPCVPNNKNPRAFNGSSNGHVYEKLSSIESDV

Compound: Fc1ccc(-n2cc(COc3ncc(N4CC(F)C4)cn3)nn2)cc1OC(F)F [Example 507, 2-[[1-[3-(Difluoromethoxy)-4-fluoro-phenyl]triazol-4-yl]methoxy]-5-(3-fluoroazetidin-1-yl)pyrimidine]
IC50 [1]: 0.008 µM

Compound: Cc1cnc(OCc2cn(-c3cccc(C(F)F)c3)nn2)nc1C [Example 155, 2-[[1-[3-(Difluoromethyl)phenyl]triazol-4-yl]methoxy]-4,5-dimethyl-pyrimidine]
IC50 [2]: 0.006 µM

IC50 [2]: 0.003 µM
Compound: Cc1cnc(OCc2cn(-c3ccc(F)c(OC(F)F)c3)nn2)nc1 [Example 63, 2-[[1-[3-(Difluoromethoxy)-4-fluoro-phenyl]triazol-4-yl]methoxy]-5-methyl-pyrimidine]

Compound: Cc1cnc(OCc2cn(-c3ccc(F)cc3C)nn2)nc1 [Example 490, 2-[[1-(4-Fluoro-2-methyl-phenyl)triazol-4-yl]methoxy]-5-methyl-pyrimidine]
IC50 [1]: 2.44 µM

Compound: CC(F)(F)c1cc(-n2cc(COc3nccc(N)n3)nn2)ccc1F [Example 580, 2-[[1-[3-(1,1-Difluoroethyl)-4-fluoro-phenyl]triazol-4-yl]methoxy]pyrimidin-4-amine]
IC50 [1]: 0.088 µM

Compound: Nc1cnc(OCc2cn(-c3ccc(F)c(OC(F)F)c3)nn2)nc1 [Example 502, 2-[[1-[3-(Difluoromethoxy)-4-fluoro-phenyl]triazol-4-yl]methoxy]pyrimidin-5-amine]
IC50 [1]: 0.136 µM

Compound: Fc1ccc(-n2cc(COc3ncc(Br)cn3)nn2)cc1C(F)(F)F [Example 454, 5-Bromo-2-((1-(4-fluoro-3-(trifluoromethyl)phenyl)-1H-1,2,3-triazol-4-yl)methoxy)pyrimidine]
IC50 [1]: 0.013 µM

IC50 [2]: > 10 µM
Compound: COc1cnc(OCc2cn(-c3ccc(OC(F)(F)F)cc3)nn2)nc1 [Example 337, 5-Methoxy-2-[[1-[4-(trifluoromethoxy)phenyl]triazol-4-yl]methoxy]pyrimidine]

Compound: Fc1ccc(-n2cc(CNc3ncccn3)nn2)cc1C(F)(F)F [Example 3, N-[[1-[4-Fluoro-3-(trifluoromethyl)phenyl]triazol-4-yl]methyl]pyrimidin-2-amine]
IC50 [2]: 2.8 µM

Compound: FC(F)c1cc(-n2cc(COc3ccccn3)nn2)ccc1Cl [Example 11, 2-[[1-[4-Chloro-3-(difluoromethyl)phenyl]triazol-4-yl]methoxy]pyridine]
IC50 [2]: 1.2 µM

Compound: Fc1ccc(-n2cc(COc3ncc(Cl)cn3)nn2)cc1Br [Example 42, 2-((1-(3-bromo-4-fluorophenyl)-1H-1,2,3-triazol-4-yl)methoxy)-5-chloropyrimidine]
IC50 [2]: 0.003 µM

Compound: Fc1ccc(-n2cc(COc3ncc(Cl)cn3)nn2)cc1OC(F)F [Example 61, 5-Chloro-2-[[1-[3-(difluoromethoxy)-4-fluoro-phenyl]triazol-4-yl]methoxy]pyrimidine]
IC50 [2]: 0.003 µM

Compound: FC(F)Oc1ccc(-n2cc(COc3ncccn3)nn2)cc1 [Example 329, 2-[[1-[4-(Difluoromethoxy)phenyl]triazol-4-yl]methoxy]pyrimidine]
IC50 [2]: 0.854 µM

IC50 [2]: > 2.99 µM
Compound: Cc1cnc(OCc2cn(-c3cccc(C)n3)nn2)nc1 [Example 174, 5-Methyl-2-[[1-(6-methyl-2-pyridyl)triazol-4-yl]methoxy]pyrimidine]

Compound: Cc1cnc(OCc2cn(-c3ccnc(C(F)(F)F)c3)nn2)nc1 [Example 666, 5-Methyl-2-[[1-[2-(trifluoromethyl)-4-pyridyl]triazol-4-yl]methoxy]pyrimidine]
IC50 [1]: 0.668 µM

Compound: Cc1nc(OCc2cn(-c3ccc(F)c(C(C)(F)F)c3)nn2)ncc1Cl [Example 574, 5-Chloro-2-[[1-[3-(1,1-difluoroethyl)-4-fluoro-phenyl]triazol-4-yl]methoxy]-4-methyl-pyrimidine]
IC50 [1]: 0.01 µM

Compound: Cc1ccc(OCc2cn(-c3ccc(F)c(OC(F)F)c3)nn2)nc1 [Example 118, 2-[[1-[3-(Difluoromethoxy)-4-fluoro-phenyl]triazol-4-yl]methoxy]-5-methyl-pyridine]
IC50 [2]: 0.026 µM

Compound: Fc1ccc(-n2cc(CNc3ccccn3)nn2)cc1OC(F)F [Example 221, N-((1-(3-(Difluoromethoxy)-4-fluorophenyl)-1H-1,2,3-triazol-4-yl)methyl)pyridin-2-amine]
IC50 [2]: 0.724 µM

Compound: FC(F)c1cc(-n2cc(COc3ncccn3)nn2)ccc1N1CCC1 [Example 188, 2-((1-(4-(Azetidin-1-yl)-3-(difluoromethyl)phenyl)-1H-1,2,3-triazol-4-yl)methoxy)pyrimidine]
IC50 [2]: 4.58 µM

Compound: Cc1cc(C)cc(-n2cc(COc3ncc(F)cn3)nn2)c1 [Example 361, 2-[[1-(3,5-Dimethylphenyl)triazol-4-yl]methoxy]-5-fluoro-pyrimidine]
IC50 [2]: 0.587 µM

IC50 [1]: 0.45 µM
Compound: CC(F)(F)c1cc(-n2cc(COc3ncc(C(C)(O)C(F)(F)F)cn3)nn2)ccc1Cl (racemic) [Example 539, (R/S)-2-[2-[[1-[4-Chloro-3-(1,1-difluoroethyl)phenyl]triazol-4-yl]methoxy]pyrimidin-5-yl]-1,1,1-trifluoro-propan-2-ol]

Compound: CCc1cnc(OCc2cn(-c3cc(C)cc(C)c3)nn2)nc1 [Example 365, 2-[[1-(3,5-Dimethylphenyl)triazol-4-yl]methoxy]-5-ethyl-pyrimidine]
IC50 [2]: 0.022 µM

Compound: CN(C)c1ccnc(OCc2cn(-c3cccc(C(C)(F)F)c3)nn2)n1 [Example 318, 2-[[1-[3-(1,1-Difluoroethyl)phenyl]triazol-4-yl]methoxy]-N,N-dimethyl-pyrimidin-4-amine]
IC50 [2]: 0.026 µM

Compound: Fc1ccc(-n2cc(CNc3ccccn3)nn2)cc1C(F)F [Example 215, N-((1-(3-(Difluoromethyl)-4-fluorophenyl)-1H-1,2,3-triazol-4-yl)methyl)pyridin-2-amine]
IC50 [2]: 0.986 µM

Compound: CNc1ccnc(OCc2cn(-c3ccc(F)c(C(F)(F)F)c3)nn2)n1 [Example 449, 2-[[1-[4-Fluoro-3-(trifluoromethyl)phenyl]triazol-4-yl]methoxy]-N-methyl-pyrimidin-4-amine]
IC50 [1]: 0.034 µM

Compound: CC(C)(O)c1cnc(OCc2cn(-c3ccc4c(c3)CCC4)nn2)nc1 [Example 369, 2-[2-[(1-Indan-5-yltriazol-4-yl)methoxy]pyrimidin-5-yl]propan-2-ol]
IC50 [2]: 0.175 µM

Compound: COc1cccnc1OCc1cn(-c2ccc(Cl)c(OC(F)F)c2)nn1 [Example 108, 2-[[1-[4-Chloro-3-(difluoromethoxy)phenyl]triazol-4-yl]methoxy]-3-methoxy-pyridine]
IC50 [2]: 0.114 µM

Compound: Fc1ccc(-n2cc(COc3ncc(C(F)(F)F)cn3)nn2)cc1C(F)(F)F [Example 76, 2-[[1-[4-Fluoro-3-(trifluoromethyl)phenyl]triazol-4-yl]methoxy]-5-(trifluoromethyl)pyrimidine]
IC50 [2]: 0.035 µM

Compound: Cc1ccnc(OCc2cn(-c3ccc(Cl)c(C(C)(F)F)c3)nn2)n1 [Example 531, 2-[[1-[4-Chloro-3-(1,1-difluoroethyl)phenyl]triazol-4-yl]methoxy]-4-methyl-pyrimidine]
IC50 [1]: 0.017 µM

Compound: COc1cnc(OCc2cn(-c3cccc(OC(F)(F)F)c3)nn2)nc1 [Example 349, 5-Methoxy-2-[[1-[3-(trifluoromethoxy)phenyl]triazol-4-yl]methoxy]pyrimidine]
IC50 [2]: 0.013 µM

Compound: Cc1ccc(F)c(-n2cc(COc3ncc(Cl)c(C)n3)nn2)c1 [Example 485, 5-Chloro-2-[[1-(2-fluoro-5-methyl-phenyl)triazol-4-yl]methoxy]-4-methyl-pyrimidine]
IC50 [1]: 1.01 µM

Compound: Cc1nc(OCc2cn(-c3ccc4c(c3)CCC4)nn2)ncc1Cl [Example 371, 5-Chloro-2-[(1-indan-5-yltriazol-4-yl)methoxy]-4-methyl-pyrimidine]
IC50 [2]: 0.039 µM

Compound: Fc1ccc(-n2cc(COc3ccc(Cl)cn3)nn2)cc1C(F)F [Example 112, 5-Chloro-2-[[1-[3-(difluoromethyl)-4-fluoro-phenyl]triazol-4-yl]methoxy]pyridine]
IC50 [2]: 0.056 µM

IC50 [2]: 0.237 µM
Compound: Cc1cnc(O[C@@H](C)c2cn(-c3ccc(Cl)c(OC(F)F)c3)nn2)nc1 [Example 380, 2-[(1S)-1-[1-[4-Chloro-3-(difluoromethoxy)phenyl]triazol-4-yl]ethoxy]-5-methyl-pyrimidine]

Compound: COc1cnc(OCc2cn(-c3cc(C)cc(C)c3)nn2)nc1 [Example 362, 2-[[1-(3,5-Dimethylphenyl)triazol-4-yl]methoxy]-5-methoxy-pyrimidine]
IC50 [2]: 0.032 µM

Compound: COc1cnc(OCc2nnn(-c3cccc(C(F)F)c3)c2C)nc1 [Example 172, 2-[[1-[3-(Difluoromethyl)phenyl]-5-methyl-triazol-4-yl]methoxy]-5-methoxy-pyrimidine]
IC50 [2]: 0.468 µM

Compound: Fc1cnc(OCc2cn(-c3ccc(Cl)c(OC(F)F)c3)nn2)cn1 [Example 189, 2-[[1-[4-Chloro-3-(difluoromethoxy)phenyl]triazol-4-yl]methoxy]-5-fluoro-pyrazine]
IC50 [2]: 1.46 µM

Compound: OCc1cnc(OCc2cn(-c3ccc(Cl)c(C(F)F)c3)nn2)nc1 [Example 624, [2-[[1-[4-Chloro-3-(difluoromethyl)phenyl]triazol-4-yl]methoxy]pyrimidin-5-yl]methanol]
IC50 [1]: 0.02 µM

Compound: Cc1cnc(OCc2cn(-c3ccc(F)c(C(F)F)c3)nn2)nc1 [Example 51, 2-[[1-[3-(Difluoromethyl)-4-fluoro-phenyl]triazol-4-yl]methoxy]-5-methyl-pyrimidine]
IC50 [2]: 0.001 µM

Compound: FC(F)c1cccc(-n2cc(COc3nccc(C4CC4)n3)nn2)c1 [Example 283, 4-Cyclopropyl-2-[[1-[3-(difluoromethyl)phenyl]triazol-4-yl]methoxy]pyrimidine]
IC50 [2]: 0.169 µM

Compound: CCc1cnc(OCc2cn(-c3ccc(F)c(C(C)(F)F)c3)nn2)nc1 [Example 67, 2-[[1-[3-(1,1-Difluoroethyl)-4-fluoro-phenyl]triazol-4-yl]methoxy]-5-ethyl-pyrimidine]
IC50 [2]: 0.015 µM

Compound: CC(F)(F)c1cccc(-n2cc(COc3ncc(OC(F)F)cn3)nn2)c1 [Example 308, 2-[[1-[3-(1,1-Difluoroethyl)phenyl]triazol-4-yl]methoxy]-5-(difluoromethoxy)pyrimidine]
IC50 [2]: 0.003 µM

Source: patent publication US10233173B2, “Substituted 1,2,3-triazoles as NR2B-selective NMDA modulators” (JANSSEN PHARMACEUTICA NV, priority 2016, dated 2019)
